The structures appear in SMILES notation.

The values that follow come from patent US6413937B1, “Combinations for use in increasing the potency of a substrate for multidrug resistance related protein” (Dublin City University and Enterprise Ireland, priority 1996, dated 2002).

Test [1] relates to DLKP cell line. As to the kind of experiment: miniaturised in vitro colorimetric cell survival assay (acid phosphatase end-point), DLKP. The test is classed as cell-based, human. The procedure: (§1) All the results presented in this Example for the DLKP, A549 and OAW42-SR cell lines were derived using the same miniaturised in vitro calorimetric assay system. On Day 1 of the assay 1000 cells/well/100 μl were plated into 96-well plates. Cells were allowed to attach overnight and cell viability was visually assessed. […] NSAID plus chemotherapeutic drug) to be analysed were added onto the cells. The individual drugs were added separately in 50 μl quantities (4× stocks, to take into account the dilution effect of having 200 μl final volume in each well). The drugs were left on the cells for five further days (Day 7) and cell number was determined using the acid phosphatase end-point assay which uses p-nitrophenol phosphate as substrate (Martin, A. and Clynes, M. (1991) In Vitro Dev. Biol., 27A, 183-184). On Day 7 the culture medium was removed from the cells and they were washed once with phosphate buffered saline (PBS). […] After the incubation period 50 μl of 1N NaOH was added to each well to develop the colour. The plates were then read at 405 nm (reference 620 nm) on an ELISA plate-reader. […] All results are the cell survival means ±S.D. from a minimum of three experiments.

Test [2] relates to A549 cell line. Put plainly: miniaturised in vitro colorimetric cell survival assay (acid phosphatase end-point), A549. The test is classed as cell-based, human. As to the method: as §1
The subject of test [3] is MRP-specific substrates. Put plainly: screen for enhancement of toxicity of MRP substrates by NSAIDs. The test is classed as cell-based. Conditions: summary statements.
For test [4], the system named is GST prepared from DLKP cells. Put plainly: total GST assay with 1-chloro-2,4-dinitrobenzene. It is filed as biochemical, human. As to the method: The other NSAIDs were tested in a total GST assay (Habig, W. H., and Jakoby, W. B., (1981); Methods Enzymol., 77: 218-231). Total cellular GST activity was assayed, using 1-chloro-2,4-dinitrobenzene as a substrate, according to the method of Habig, W. H., and Jakoby, W. B., (1981); supra. Due to spectrophotometric interference at 340 nm, caused by the majority of the NSAIDs, the assays were all performed at 360 nm, without any apparent effect on the rate of the control reaction The results are shown in Table 5.

Test [5] relates to DLKP cells. As to the kind of experiment: Example 5 miniaturised in vitro cell toxicity assay, DLKP. It is filed as cell-based, human. The procedure:
For the monolayer cell lines miniaturised in vitro assays were used to determine drug toxicity. On Day I cells were seeded at 1×10^3 cells/well in a 96-well plate and left to attach overnight. Drug was added on Day 2, and the assay was terminated on Day 7. Cell number was then evaluated by using one of two colorimetric end-point […]: the acid phosphatase assay (Martin, A., and Clynes, M. (1991); In vitro Cell and Development Biology, 27A: 183-184) or the crystal violet dye elution assay (Martin, A., and Clynes, M. (1993); Cytotechnology, 11:49-58). All assays were performed in triplicate.

The target of test [6] is T1, MRP pump (Homo sapiens, UniProt P33527).
T1 construct: inside-out plasma membrane vesicles prepared from HL60ADR cells; endogenous in cells; host or cells: HL60ADR cells (plasma membrane vesicles)
T1 sequence (P33527 whole entry): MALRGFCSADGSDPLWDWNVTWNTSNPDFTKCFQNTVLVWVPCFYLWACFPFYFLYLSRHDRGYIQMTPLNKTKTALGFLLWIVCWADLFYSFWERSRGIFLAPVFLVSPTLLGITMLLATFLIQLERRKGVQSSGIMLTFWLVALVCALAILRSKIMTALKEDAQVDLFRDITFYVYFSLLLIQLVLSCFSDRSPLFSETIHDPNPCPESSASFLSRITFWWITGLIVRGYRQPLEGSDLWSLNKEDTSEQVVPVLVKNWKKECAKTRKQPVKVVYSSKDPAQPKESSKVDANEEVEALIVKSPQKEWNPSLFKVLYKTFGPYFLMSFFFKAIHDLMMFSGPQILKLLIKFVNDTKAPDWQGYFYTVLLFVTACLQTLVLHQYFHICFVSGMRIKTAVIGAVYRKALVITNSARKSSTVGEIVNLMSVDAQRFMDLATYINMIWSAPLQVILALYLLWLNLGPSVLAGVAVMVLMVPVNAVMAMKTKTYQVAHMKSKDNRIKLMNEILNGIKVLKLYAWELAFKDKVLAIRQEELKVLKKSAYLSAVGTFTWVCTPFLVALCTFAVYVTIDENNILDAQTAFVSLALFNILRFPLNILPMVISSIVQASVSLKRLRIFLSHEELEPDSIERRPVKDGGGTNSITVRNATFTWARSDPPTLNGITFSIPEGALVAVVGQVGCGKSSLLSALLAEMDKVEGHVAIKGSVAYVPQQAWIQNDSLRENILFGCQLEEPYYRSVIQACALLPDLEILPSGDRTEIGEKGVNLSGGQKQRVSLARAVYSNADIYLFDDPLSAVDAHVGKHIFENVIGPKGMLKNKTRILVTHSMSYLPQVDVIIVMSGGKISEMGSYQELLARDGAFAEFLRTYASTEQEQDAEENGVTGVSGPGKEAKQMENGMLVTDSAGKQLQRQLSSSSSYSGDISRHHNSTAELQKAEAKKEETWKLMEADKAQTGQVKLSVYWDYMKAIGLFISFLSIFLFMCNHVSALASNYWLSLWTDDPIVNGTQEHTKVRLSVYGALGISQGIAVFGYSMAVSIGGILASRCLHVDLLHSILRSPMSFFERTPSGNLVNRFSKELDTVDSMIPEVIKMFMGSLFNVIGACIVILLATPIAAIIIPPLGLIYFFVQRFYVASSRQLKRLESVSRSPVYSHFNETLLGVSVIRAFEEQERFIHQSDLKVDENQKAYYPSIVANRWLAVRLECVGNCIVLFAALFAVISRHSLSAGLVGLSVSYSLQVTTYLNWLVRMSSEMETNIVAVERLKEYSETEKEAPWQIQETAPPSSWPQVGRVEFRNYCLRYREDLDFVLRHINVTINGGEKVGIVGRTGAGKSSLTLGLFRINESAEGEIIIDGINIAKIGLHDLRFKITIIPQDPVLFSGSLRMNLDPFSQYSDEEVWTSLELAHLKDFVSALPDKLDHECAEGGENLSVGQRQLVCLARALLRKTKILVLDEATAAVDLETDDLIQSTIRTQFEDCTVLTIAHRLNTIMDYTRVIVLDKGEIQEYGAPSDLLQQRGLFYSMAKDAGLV
Put plainly: ATP-dependent transport of [3H]LTC4 into inside-out plasma membrane vesicles from HL60ADR cells. It is filed as biochemical. Conditions: conclusion from Table 4. The procedure:
To determine if the NSAIDs were acting directly on the MRP pump the uptake of [^3H]LTC4 into inside-out plasma membrane vesicles prepared from HL60ADR cells was examined using a rapid filtration procedure (Ishikawa,T., et al. (1994); J. Biol. Chem. 269 (46); 29085-29093). ATP-dependent transport of [^3H]LTC4 into the membrane vesicles was measured by a rapid filtration method using a Millipore sampling manifold. The membrane vesicles were thawed at 37° C. before use and kept on ice. The reaction components consisted of 0.25 M sucrose/10 mM Tris.HCl pH 7.4/1 mM ATP/10 mM MgCl2/10 mM creatine phosphate/ 110 μg/ml creatine kinase and 10 nM [^3H]LTC4, with 50 μg of the inside-out vesicle preparation, in a final volume of 110 μl. This suspension was incubated at 37° C., with gentle mixing, and aliquots, 20 μl, were taken at the indicated points. Those aliquots were diluted in 1 ml of ice-cold incubation buffer before being applied to 0.22 μm Millipore GSWP nitrocellulose filters, pre-soaked in ice-cold incubation buffer, under suction. The filters were subsequently washed with 3 ml ice-cold incubation buffer, and absorbed radioactivity was measured using a scintillation counter (Beckman). In control experiments ATP was replaced with 5μ-AMP to determine the ATP-dependent transport.

As to `O=c1[nH]cc(F)c(=O)[nH]1` [5-FU, 5-flurouracil], in test [1] (iv) 5-FU 0.5 μg/ml alone), the “% cell survival” value turned out to be 66.18 ± 1.4%.
In the case of `CSc1ccc(/C=C2/C(C)=C(CC(=O)O)c3cc(F)ccc32)cc1` [Sulindac sulfide, sulindac sulfide], the “% cell survival” value was 105.83 ± 6.50% in test [2] (xii) Sulindac sulfide 1.40 μg/ml, alone or + Adriamycin 15 ng/ml); 104.91 ± 5.57% in test [2] (xii) Sulindac sulfide 2.70 μg/ml, alone or + Adriamycin 15 ng/ml); 90.19 ± 9.63% in test [2] (xii) Sulindac sulfide 6.00 μg/ml, alone or + Adriamycin 15 ng/ml).
Turning to `CCc1cccc2c3c([nH]c12)C(CC)(CC(=O)O)OCC3` (centres unmarked) [etodolac], the “enhancement of toxicity of MRP substrates” value (“enhancement” below) in test [3] is on record as “does not exhibit the enhanced cytotoxicity”.
Turning to `CC(C)Cc1ccc(C(C)C(=O)O)cc1` (centres unmarked) [Ibuprofen], the “% cell survival” value worked out at 100.37 ± 7.94% in test [2] (xvi) Ibuprofen 3.06 μg/ml, alone or + Adriamycin 17 ng/ml); 96.78 ± 11.43% in test [2] (xvi) Ibuprofen 7.92 μg/ml, alone or + Adriamycin 17 ng/ml); 95.58 ± 8.50% in test [2] (xvi) Ibuprofen 15.72 μg/ml, alone or + Adriamycin 17 ng/ml). For the same compound, the “% Inhibition of GST” value in test [4] (1 mM) amounted to 18.5%.
For the compound `COc1cccc2c1C(=O)c1c(O)c3c(c(O)c1C2=O)C[C@@](O)(C(=O)CO)C[C@@H]3O[C@H]1C[C@H](N)[C@@H](O)[C@H](C)O1` [Epirubicin, epirubicin], the “% cell survival” value in test [5] (Epirubicin 1 ng/ml alone) was found to be 69.08 ± 3.6%.
Turning to `CC(C(=O)O)c1cccc(Oc2ccccc2)c1` (centres unmarked) [Fenoprofen], the “% Inhibition of GST” value in test [4] (1 mM) turned out to be 22.5%.
For `Cc1cc(CC(=O)O)n(C)c1C(=O)c1ccc(Cl)cc1` [Zomepirac, zomepirac], the “% cell survival” value was determined as 96.79 ± 12.10% in test [2] (xv) Zomepirac 20.70 μg/ml, alone or + Adriamycin 15 ng/ml) and 94.89 ± 13.91% in test [2] (xv) Zomepirac 38.80 μg/ml, alone or + Adriamycin 15 ng/ml). Besides, the “% Inhibition of GST” value in test [4] (0.25 mM) is 56%. In addition, in test [3], the “enhancement” value is “have been found to enhance the toxicity of MRP-specific substrates”.
As to `COc1ccc2c(c1)c(CC(=O)OCC(=O)O)c(C)n2C(=O)c1ccc(Cl)cc1` [Acemetacin, acemetacin], the “% cell survival” value in test [2] (viii) Acemetacin 11.50 μg/ml, alone or + Adriamycin 15 ng/ml) is reported as 102.08 ± 8.76%; in test [2] (viii) Acemetacin 19.20 μg/ml, alone or + Adriamycin 15 ng/ml), 97.30 ± 8.46%; in test [2] (viii) Acemetacin 37.50 μg/ml, alone or + Adriamycin 15 ng/ml), 85.04 ± 10.13%. In addition, the “% Inhibition of GST” value in test [4] (0.25 mM) was 58%. Also, the “enhancement” value in test [3] is reported as “have been found to enhance the toxicity of MRP-specific substrates”.
For the compound `COc1cc([C@@H]2c3cc4c(cc3[C@@H](O[C@@H]3O[C@@H]5CO[C@@H](c6cccs6)O[C@H]5[C@H](O)[C@H]3O)[C@H]3COC(=O)[C@H]23)OCO4)cc(OC)c1O` [Teniposide, teniposide], the “% cell survival” value in test [5] (Teniposide 6.25 ng/ml alone) turned out to be 79.79 ± 0.97%.
As to `Cc1cccc(Nc2ccccc2C(=O)O)c1C` [Mefenamic acid, mefenamic acid], the “% cell survival” value amounted to 98.49 ± 7.66% in test [2] (x) Mefenamic acid 2.30 μg/ml, alone or + Adriamycin 15 ng/ml); 95.38 ± 9.21% in test [2] (x) Mefenamic acid 4.00 μg/ml, alone or + Adriamycin 15 ng/ml); 85.23 ± 7.80% in test [2] (x) Mefenamic acid 7.90 μg/ml, alone or + Adriamycin 15 ng/ml).
With `O=C(O)c1ccccc1Nc1cccc(C(F)(F)F)c1` [Flufenamic Acid], the “% Inhibition of GST” value in test [4] (0.75 mM) is 41.2%.
`O=C(O)Cc1ccccc1Nc1c(Cl)cccc1Cl` [Diclofenac]: the “% Inhibition of GST” value in test [4] (0.75 mM) was 54%.
For the compound `O.O.O.O=C([O-])[C@H]([O-])[C@@H]([O-])C(=O)[O-].O=C([O-])[C@H]([O-])[C@@H]([O-])C(=O)[O-].[K+].[K+].[Sb+3].[Sb+3]` [Potassium Antimonyl Tartrate, Potassium antimonyl tartrate], the “% cell survival” value in test [1] (vii) Potassium Antimonyl Tartrate 1.5 μg/ml alone) was 39.98 ± 3.3%.
Regarding `CC1=C(CC(=O)O)c2cc(F)ccc2/C1=C\c1ccc(S(C)(=O)=O)cc1` [Sulindac sulfone, sulindac sulfone], the “% cell survival” value in test [2] (xiii) Sulindac sulfone 4.50 μg/ml, alone or + Adriamycin 15 ng/ml) was found to be 101.87 ± 10.52%; in test [2] (xiii) Sulindac sulfone 8.90 μg/ml, alone or + Adriamycin 15 ng/ml), 102.21 ± 8.88%; in test [2] (xiii) Sulindac sulfone 19.50 μg/ml alone, or (printed 19.50 mg/ml) + Adriamycin 15 ng/ml), 76.77 ± 6.49%.
Regarding `c1ccc([C@H]2CN3CCSC3=N2)cc1` [Levamisole], in test [4] (1 mM), the “% Inhibition of GST” value amounted to 0%.
The same measure, in the same setting: as for `O=C(O)CCC(=O)c1ccc(-c2ccccc2)cc1` [Fenbufen], the figure is 15.6%.
As for `COc1ccc2cc([C@H](C)C(=O)O)ccc2c1` [Naproxen], the “% Inhibition of GST” value in test [4] (1 mM) was determined as 17%. In addition, the MRP-pump inhibitory activity result in test [6] is listed as “do not”.
Turning to `CC(C(=O)O)c1cccc(C(=O)c2ccccc2)c1` (centres unmarked) [Ketoprofen], the “% Inhibition of GST” value in test [4] (1 mM) turned out to be 11.2%.
